From patent US20140256656A1, “D-MANNOSE CONTRACEPTIVES” (Bio-Tech Pharmacal, Inc., priority 2002, published 2014)

Legend:
[1] = system: sperm adhering or attaching to the egg; test: Equine-field observation of conception after D-Mannose; type: in vivo; settings: D-Mannose in sufficient quantities at the appropriate times
Description: In the equine field, Mr. […] Accordingly, the invention finds application in all fields of mammal animal husbandry to prevent unwanted cross-breeding, and to also prevent unwanted unproductive periods that are caused by undesired breeding.

bacteria = settings: as described in the referenced earlier patents and applications of Dale Benedict; cited from earlier work

O=C[C@@H](O)[C@@H](O)[C@H](O)[C@H](O)CO [D-Mannose]
likelihood of conception [1]: reduces the likelihood of conception
adherence of bacteria to membranes or cell walls (bacteria): inhibits the adherence of bacteria to membranes or cell walls
